# Results from ChEMBL document CHEMBL3286233, “Design and synthesis of systemically active metabotropic glutamate subtype-2 and -3 (mGlu2/3) receptor positive allosteric modulators (PAMs): pharmacological characterization and assessment in a rat model of cocaine dependence” (J Med Chem, 2014).
# Tests used:
# Rattus norvegicus [1] = test: Cmax in rat at 20 mg/kg, po; format: ADME, organism-based; set-up: dose 20 mg/kg, route oral; conditions: in vivo
# Rattus norvegicus [2] = test: Volume of distribution at steady state in rat at 2 mg/kg, iv; format: ADME, organism-based; set-up: dose 2 mg/kg, route intravenous; conditions: in vivo
# Rattus norvegicus [3] = test: Cmax in rat at 2 mg/kg, iv; format: ADME, organism-based; set-up: dose 2 mg/kg, route intravenous; conditions: in vivo
# Rattus norvegicus [4] = test: AUC (0 to t) in rat at 20 mg/kg, po; format: ADME, organism-based, Plasma; set-up: dose 20 mg/kg, route oral; conditions: in vivo
# Brain = test: Drug uptake in rat brain at 20 mg/kg, po; format: ADME, organism-based; set-up: dose 20 mg/kg, route oral; conditions: in vivo, read-out: Drug uptake
# Rattus norvegicus [5] = test: AUC (0 to t) in rat at 2 mg/kg, iv; format: ADME, organism-based, Plasma; set-up: dose 2 mg/kg, route intravenous; conditions: in vivo
# Rattus norvegicus [6] = test: Tmax in rat at 20 mg/kg, po; format: ADME, organism-based; set-up: dose 20 mg/kg, route oral; conditions: in vivo
# Plasma = test: Plasma concentration in rat at 20 mg/kg, po; format: ADME, organism-based; set-up: dose 20 mg/kg, route oral; conditions: in vivo
# [7] = Tmax in rat at 10 mg/kg, ip; format: ADME, organism-based; set-up: dose 10 mg/kg, route intraperitoneal; conditions: in vivo
# Nucleic Acid = test: Ratio of drug uptake from brain to plasma in rat after 30 mins; format: ADME; conditions: 0.5 h
Cmax (Rattus norvegicus [1]) [µM],Vdss (Rattus norvegicus [2]) [L/kg],Cmax (Rattus norvegicus [3]) [µM],AUCt (Rattus norvegicus [4]) [µmol·min/L],concentration (Brain) [µM],AUCt (Rattus norvegicus [5]) [µmol·min/L],Tmax (Rattus norvegicus [6]) [min],concentration (Plasma) [µM],Tmax [7] [min],BPR (Nucleic Acid),SMILES
2.57,0.81,5,544.8,1.12,231.7,135,5.29,–,–,Cc1c(OCCCCOc2ccc(C(=O)O)cc2)ccc(C(=O)CC(C)C)c1O
–,–,–,–,–,–,–,–,30,–,CCCC(=O)c1ccc(OCCCCOc2cc(C(=O)O)ccc2OC)c(C)c1O
–,–,–,–,–,–,–,–,30,–,COc1ccc(C(=O)O)cc1OCCCCOc1ccc(C(=O)CC(C)(C)C)c(O)c1C
1.05,2.87,2.15,466.2,–,77.2,96,–,–,–,COc1ccc(C(=O)O)cc1OCCCCOc1ccc(C(=O)CC(C)C)c(O)c1C
–,–,–,–,–,–,–,–,30,–,CCC(=O)c1ccc(OCCCCOc2ccc(F)c(C(=O)O)c2)c(C)c1O
12.5,0.89,3.52,720.5,0.23,123.7,30,4.23,–,–,Cc1c(OCCCCOc2ccc(F)c(C(=O)O)c2)ccc(C(=O)CC(C)C)c1O
–,–,–,–,–,–,–,–,30,–,Cc1c(OCCCCOc2ccc(C(=O)CC(C)(C)C)c(O)c2C)cccc1C(=O)O
2.75,0.55,6.43,1274.6,0.81,304.6,90,16.4,30,–,COc1cc(C(=O)O)ccc1OCCCCOc1ccc(C(=O)CC(C)C)c(O)c1C
–,–,–,–,–,–,–,–,30,–,Cc1c(OCCCCOc2ccc(F)c(C(=O)O)c2)ccc(C(=O)CC(C)(C)C)c1O
–,–,–,–,–,–,–,–,30,0.02,COc1cc(C(=O)O)ccc1OCCCCOc1ccc(C(=O)CC(C)(C)C)c(O)c1C
